Assay [1] has as its target T1, Serine/threonine-protein kinase 17B (Homo sapiens, UniProt O94768).
T1 sequence (O94768 whole entry): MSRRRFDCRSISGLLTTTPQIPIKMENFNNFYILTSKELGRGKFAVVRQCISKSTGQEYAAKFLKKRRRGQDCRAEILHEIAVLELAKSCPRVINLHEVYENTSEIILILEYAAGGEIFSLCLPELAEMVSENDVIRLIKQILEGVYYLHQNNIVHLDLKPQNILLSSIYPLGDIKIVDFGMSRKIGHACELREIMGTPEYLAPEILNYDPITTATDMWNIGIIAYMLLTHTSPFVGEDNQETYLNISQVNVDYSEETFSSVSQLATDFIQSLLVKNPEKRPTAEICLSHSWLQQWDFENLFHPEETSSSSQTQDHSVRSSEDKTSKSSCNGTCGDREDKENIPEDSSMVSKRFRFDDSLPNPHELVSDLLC
Put plainly: Binding affinity to DRAK2 (unknown origin) assessed as dissociation constant.

The target of assay [2] is T2, Death-associated protein kinase 3 (Homo sapiens, UniProt O43293). Nature of the assay: Inhibition of human recombinant GST-fused DAPK3 (1 to 320 residues) expressed in Escherichia coli BL21 (DE3) assessed as inhibition constant using MYPT1 as peptide substrate incubated for 10 mins in presence of [gamma-32P]ATP by radiometric scintillation assay.
Assay [3] concerns the target Serine/threonine-protein kinase pim-1 (Homo sapiens, UniProt P11309). Nature of the assay: Inhibition of human full length-His6 tagged PIM1 (1 to 312 residues) expressed in Escherichia coli BL21 (DE3) assessed as inhibition constant using RSRHSSYPAGT as peptide substrate incubated for 10 mins in presence of [gamma-32P]ATP by radiometric scintillation assay.
For assay [4], the target named is Serine/threonine-protein kinase pim-2 (Homo sapiens, UniProt Q9P1W9). Nature of the assay: Inhibition of human full length-His6 tagged PIM2 (1 to 311 residues) expressed in Escherichia coli BL21 (DE3) assessed as inhibition constant using RSRHSSYPAGT as peptide substrate incubated for 10 mins in presence of [gamma-32P]ATP by radiometric scintillation assay.
Assay [5] concerns the target T3, Serine/threonine-protein kinase pim-3 (Homo sapiens, UniProt Q86V86). Nature of the assay: Inhibition of human full length-His6 tagged PIM3 (1 to 326 residues) expressed in Escherichia coli BL21 (DE3) assessed as inhibition constant using RSRHSSYPAGT as peptide substrate incubated for 10 mins in presence of [gamma-32P]ATP by radiometric scintillation assay.
Assay [6] concerns the target T4, Death-associated protein kinase 1 (Homo sapiens, UniProt P53355). Put plainly: Inhibition of DAPK1 (unknown origin).
The target of assay [7] is T4, Death-associated protein kinase 1. Nature of the assay: Inhibition of DAPK1 (1 to 285 residues) (unknown origin) expressed in Escherichia coli using KKLNRTLSFAEPG as substrate in presence of ATP by fluoro-spark kinase assay.
The target is the same in assay [8]. Nature of the assay: Inhibition of DAPK1 (unknown origin) in presence of 33P-ATP radiolabeled kinase assay.
Assay [9] deals with T3, Serine/threonine-protein kinase pim-3. Put plainly: Inhibition of PIM3 (unknown origin) at 10 uM by (33P-ATP) filter-binding assay relative to control.
The target in assay [10] is T4, Death-associated protein kinase 1. Put plainly: Inhibition of DAPK1 (unknown origin) at 10 uM by (33P-ATP) filter-binding assay relative to control.
Assay [11] concerns the target Death-associated protein kinase 2 (Homo sapiens, UniProt Q9UIK4). Nature of the assay: Binding affinity to DAPK2 (unknown origin) assessed as dissociation constant.
Assay [12] deals with T2, Death-associated protein kinase 3. Put plainly: Binding affinity to DAPK3 (unknown origin) assessed as dissociation constant.
The target of assay [13] is T5, Serine/threonine-protein kinase 17A (Homo sapiens, UniProt Q9UEE5).
T5 sequence (Q9UEE5 whole entry): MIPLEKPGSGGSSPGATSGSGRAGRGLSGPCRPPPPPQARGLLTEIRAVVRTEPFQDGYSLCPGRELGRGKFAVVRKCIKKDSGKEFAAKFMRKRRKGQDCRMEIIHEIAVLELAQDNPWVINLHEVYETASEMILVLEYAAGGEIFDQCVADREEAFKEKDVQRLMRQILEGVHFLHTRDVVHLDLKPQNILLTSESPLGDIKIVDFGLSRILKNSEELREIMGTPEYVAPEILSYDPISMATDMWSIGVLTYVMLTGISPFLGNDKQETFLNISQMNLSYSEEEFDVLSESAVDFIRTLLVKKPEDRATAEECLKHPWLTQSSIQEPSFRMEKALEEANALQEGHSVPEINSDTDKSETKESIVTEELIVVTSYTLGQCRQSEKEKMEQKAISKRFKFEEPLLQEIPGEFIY
Nature of the assay: Inhibition of DRAK1 (unknown origin).

The target in assay [14] is T1, Serine/threonine-protein kinase 17B. Nature of the assay: Inhibition of DRAK2 (unknown origin).
For assay [15], the target named is T2, Death-associated protein kinase 3. Put plainly: Inhibition of DAPK3 (unknown origin).
The target in assay [16] is T1, Serine/threonine-protein kinase 17B. Put plainly: Inhibition of recombinant GST-tagged DRAK2 (unknown origin) by promega ADP-Glo assay.

A value given as a limit tells only on which side of the number the result lay.

Regarding `Nc1c(-c2n[nH]c(=S)o2)sc2ccc(Cl)cc12`, the Kd in assay [1] was determined as 250 nM.
Turning to `CC(C)(Sc1nc2c(cnn2-c2ccccc2)c(=O)[nH]1)C(N)=O`, the Ki in assay [2] is 126 nM; in assay [3], 6310 nM; in [4], over 100000 nM; in assay [5] it was 2500 nM.
Take `COc1cc(-c2ccc3ncc(-c4ccc(C(=O)NCCN(C)C)cc4)n3n2)ccc1O`: the midpoint of inhibition in [6], the IC50, lay at 247 nM.
Take `N#CCSc1nc2c(cnn2-c2cccc(Cl)c2)c(=O)[nH]1`: the Ki came out at 315 nM in [2], 1480 nM in [3], 17300 nM in assay [4] and 72 nM in assay [5].
For `O=C1c2ccccc2C(=O)c2c1ccc(O)c2O` [ATHRAQUINONES A], the IC50 in [7] is 3600 nM.
As to `Cc1nc2c(OCc3ccccc3)ncnc2n1C(C)C`, in [8], the IC50 was determined as 23000 nM.
As to `CC(Sc1nc2c(cnn2-c2cccc(Cl)c2)c(=O)[nH]1)C(N)=O` (stereo not given), the results for the inhibition in [9] and in [10] were 76% and 89%, respectively. Also, the Kd in assay [11] worked out at 79 nM; in [12], 280 nM. Further, the Ki was 260 nM in assay [2], 2940 nM in [3], 208 nM in assay [4] and over 100000 nM in assay [5].
As to `c1ccc(COc2ncnc3c2ncn3Cc2ccccc2)cc1`, the IC50 in assay [8] turned out to be 5900 nM.
`O=C1c2ccccc2C(=O)c2c(O)c(O)cc(O)c21` [PURPURIN]: in assay [7], the half-inhibitory concentration (IC50) is 890 nM.
For the compound `COc1cnc(Nc2ccc(CS(C)(=O)=O)cc2)nc1Nc1cc(C2CC2)[nH]n1`, the IC50 worked out at 370 nM in assay [6], 100 nM in [13], 10 nM in assay [14] and 310 nM in assay [15].
For the compound `CCc1ccccc1-c1nn(CCCCCCCCCCC(=O)Nc2cnnc(-c3ccccc3)c2)c(=N)cc1C`, in assay [6], it took 13000 nM to reach half-maximal inhibition (IC50).
Turning to `Nc1c(-c2n[nH]c(=S)o2)sc2ncc(-c3ccsc3)cc12`, the Kd in [1] is 8 nM.
On to `CCC(Sc1nc2c(cnn2-c2cccc(F)c2)c(=O)[nH]1)C(N)=O` (stereo not given), for which the Ki in assay [2] is 119 nM; in assay [3] it was 6480 nM; in [4], over 100000 nM; in [5], 1070 nM.
In the case of `Nc1c(O)c(S(=O)(=O)O)c(O)c2c1C(=O)c1ccccc1C2=O`, in [7], the IC50 came out at 9600 nM.
For `COC(=O)C1=C2Nc3ccccc3C23CC2N(C)[C@H]3C[C@H]1[C@@]2(C)C(C)=O` (stereo not given in full), the IC50 in assay [16] worked out at 11600 nM.
Regarding `CC(C)(C)n1c(-c2ccccc2)nc2c(OCc3ccccc3)ncnc21`, the IC50 in [8] stood at 2500 nM.
